Test results: PubChem BioAssay (NCI)
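The concentration for 50% growth inhibition is given as GI50. TGI: concentration producing complete growth inhibition.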

Legend:
Experiment in all cases: growth of human tumour cells (NCI), 384-well format
[1] = system: 786-0 renal
[2] = system: A498 renal
[3] = system: A549 NSCLC
[4] = system: ACHN renal
[5] = system: BT-549 breast
[6] = system: CAKI-1 renal
[7] = system: DU-145 prostate
[8] = system: EKVX NSCLC
[9] = system: HCT-116 colon
[10] = system: HCT-15 colon
[11] = system: HL-60(TB) leukemia
[12] = system: HOP-62 NSCLC
[13] = system: HOP-92 NSCLC
[14] = system: HS 578T breast
[15] = system: HT29 colon
[16] = system: IGROV1 ovarian
[17] = system: K-562 leukemia
[18] = system: KM12 colon
[19] = system: LOX IMVI melanoma
[20] = system: M14 melanoma
[21] = system: MALME-3M melanoma
[22] = system: MCF7 breast
[23] = system: MDA-MB-231 breast
[24] = system: MDA-MB-435 melanoma
[25] = system: MDA-MB-468 breast
[26] = system: MOLT-4 leukemia
[27] = system: NCI-H226 lung
[28] = system: NCI-H23 lung
[29] = system: NCI-H322M lung
[30] = system: NCI-H522 lung
[31] = system: NCI/ADR-RES ovarian
[32] = system: OVCAR-3 ovarian
[33] = system: OVCAR-4 ovarian
[34] = system: OVCAR-5 ovarian
[35] = system: OVCAR-8 ovarian
[36] = system: PC-3 prostate
[37] = system: RPMI-8226 leukemia
[38] = system: RXF 393 renal
[39] = system: SK-MEL-2 melanoma
[40] = system: SK-MEL-28 melanoma
[41] = system: SK-OV-3 ovarian
[42] = system: SN12C renal
[43] = system: SW-620 colon
[44] = system: T-47D breast
[45] = system: TK-10 renal
[46] = system: U251 glioblastoma
[47] = system: UACC-257 melanoma
[48] = system: UACC-62 melanoma
[49] = system: UO-31 renal
[50] = system: CCRF-CEM leukemia
[51] = system: COLO 205 colon
[52] = system: HCC-2998 colon
[53] = system: NCI-H460 NSCLC
[54] = system: SF-268 CNS
[55] = system: SF-295 CNS
[56] = system: SF-539 CNS
[57] = system: SK-MEL-5 melanoma
[58] = system: SNB-19 CNS
[59] = system: SNB-75 CNS
[60] = system: SR leukemia

## CC/C(=C(\c1ccccc1)c1ccc(OCCN(C)C)cc1)c1ccccc1
[1]
  GI50: 4.92 µM
  TGI: 15.7 µM
[2]
  GI50: 4.05 µM
  TGI: 15 µM
[3]
  GI50: 10.9 µM
  TGI: 23.7 µM
[4]
  GI50: 16.4 µM
  TGI: 30.3 µM
[5]
  GI50: 10.7 µM
  TGI: 22.8 µM
[6]
  GI50: 8.23 µM
  TGI: 20.8 µM
[7]
  GI50: 12.8 µM
  TGI: 25.9 µM
[8]
  GI50: 14.7 µM
  TGI: 28.1 µM
[9]
  GI50: 5.26 µM
  TGI: 17.5 µM
[10]
  GI50: 2.05 µM
  TGI: 3.96 µM
[11]
  GI50: 1.93 µM
  TGI: 3.39 µM
[12]
  GI50: 12.9 µM
  TGI: 25.7 µM
[13]
  GI50: 14.7 µM
  TGI: 28.1 µM
[14]
  GI50: 14 µM
  TGI: 27.2 µM
[15]
  GI50: 2.2 µM
  TGI: 4.16 µM
[16]
  GI50: 14.2 µM
  TGI: 27.4 µM
[17]
  GI50: 2.51 µM
  TGI: 5.33 µM
[18]
  GI50: 3.27 µM
  TGI: 10.7 µM
[19]
  GI50: 4.94 µM
  TGI: 17 µM
[20]
  GI50: 1.89 µM
  TGI: 3.51 µM
[21]
  GI50: 1.99 µM
  TGI: 3.66 µM
[22]
  GI50: 1.65 µM
  TGI: 7.98 µM
[23]
  GI50: 11.5 µM
  TGI: 24 µM
[24]
  GI50: 7.19 µM
  TGI: 19.5 µM
[25]
  GI50: 4.92 µM
  TGI: 16 µM
[26]
  GI50: 2.56 µM
  TGI: 6 µM
[27]
  GI50: 7.96 µM
  TGI: 20.2 µM
[28]
  GI50: 10.6 µM
  TGI: 22.6 µM
[29]
  GI50: 6.11 µM
  TGI: 18.4 µM
[30]
  GI50: 11.4 µM
  TGI: 23.7 µM
[31]
  GI50: 12 µM
  TGI: 24.6 µM
[32]
  GI50: 9.12 µM
  TGI: 21.3 µM
[33]
  GI50: 12.9 µM
  TGI: 25.7 µM
[34]
  GI50: 8.67 µM
  TGI: 21 µM
[35]
  GI50: 11.5 µM
  TGI: 24 µM
[36]
  GI50: 4.18 µM
  TGI: 13.7 µM
[37]
  GI50: 1.94 µM
  TGI: 3.66 µM
[38]
  GI50: 3.43 µM
  TGI: 8.75 µM
[39]
  GI50: 4.1 µM
  TGI: 15.8 µM
[40]
  GI50: 5.35 µM
  TGI: 16.8 µM
[41]
  GI50: 10.6 µM
  TGI: 22.8 µM
[42]
  GI50: 13.6 µM
  TGI: 26.7 µM
[43]
  GI50: 9.21 µM
  TGI: 21.6 µM
[44]
  GI50: 5.64 µM
  TGI: 19.7 µM
[45]
  GI50: 12.7 µM
  TGI: 25.5 µM
[46]
  GI50: 5.21 µM
  TGI: 16.2 µM
[47]
  GI50: 1.97 µM
  TGI: 3.56 µM
[48]
  GI50: 2.77 µM
  TGI: 7.86 µM
[49]
  GI50: 14.9 µM
  TGI: 28.4 µM

## C=C1C(=O)OC(CCCCCCCC)C1C(=O)O (stereo not given)
[1]
  GI50: 16.7 µM
  TGI: 31.6 µM
[2]
  GI50: 22.1 µM
  TGI: 45.5 µM
[3]
  GI50: 20.9 µM
  TGI: 41.8 µM
[4]
  GI50: 21.4 µM
  TGI: 39.3 µM
[5]
  GI50: 14.8 µM
  TGI: 38.3 µM
[6]
  GI50: 16.5 µM
  TGI: 30.7 µM
[50]
  GI50: 12.2 µM
  TGI: 24.8 µM
[51]
  GI50: 25.5 µM
  TGI: 40.4 µM
[7]
  GI50: 17.4 µM
  TGI: 31.5 µM
[8]
  GI50: 20.4 µM
  TGI: 37.7 µM
[52]
  GI50: 20.6 µM
  TGI: 35.2 µM
[10]
  GI50: 19.4 µM
  TGI: 37.1 µM
[11]
  GI50: 13.5 µM
  TGI: 26.4 µM
[12]
  GI50: 12.9 µM
  TGI: 28.6 µM
[13]
  GI50: 19.8 µM
  TGI: 41.1 µM
[14]
  GI50: 12.2 µM
  TGI: 25.5 µM
[15]
  GI50: 23.4 µM
  TGI: 49.4 µM
[16]
  GI50: 19.2 µM
  TGI: 37.4 µM
[18]
  GI50: 14.6 µM
  TGI: 28.2 µM
[20]
  GI50: 17.8 µM
  TGI: 34.5 µM
[21]
  GI50: 15.5 µM
  TGI: 29.2 µM
[22]
  GI50: 21.1 µM
  TGI: 39.6 µM
[23]
  GI50: 30.3 µM
  TGI: > 100 µM
[24]
  GI50: 23.3 µM
  TGI: 44 µM
[25]
  GI50: 3.04 µM
  TGI: 6.75 µM
[26]
  GI50: 14.6 µM
  TGI: 27.9 µM
[27]
  GI50: 27.9 µM
  TGI: 49.7 µM
[28]
  GI50: 14 µM
  TGI: 27.6 µM
[29]
  GI50: 24.3 µM
  TGI: 50.3 µM
[53]
  GI50: 17.1 µM
  TGI: 31.3 µM
[30]
  GI50: 6.51 µM
  TGI: 19.2 µM
[31]
  GI50: 22.3 µM
  TGI: 46.2 µM
[32]
  GI50: 12.8 µM
  TGI: 26.2 µM
[33]
  GI50: 16.9 µM
  TGI: 32.1 µM
[34]
  GI50: 39.3 µM
  TGI: > 100 µM
[35]
  GI50: 24.9 µM
  TGI: 54.9 µM
[36]
  GI50: 21 µM
  TGI: 39.1 µM
[37]
  GI50: 10.3 µM
  TGI: 22.1 µM
[38]
  GI50: 11.5 µM
  TGI: 24.1 µM
[54]
  GI50: 19 µM
  TGI: 37 µM
[55]
  GI50: 23.5 µM
  TGI: 57.5 µM
[56]
  GI50: 20.1 µM
  TGI: 34.9 µM
[39]
  GI50: 28.7 µM
  TGI: 46.6 µM
[40]
  GI50: 23.3 µM
  TGI: 46.8 µM
[57]
  GI50: 18.3 µM
  TGI: 32.5 µM
[41]
  GI50: 23.6 µM
  TGI: 45.2 µM
[42]
  GI50: 19 µM
  TGI: 36.1 µM
[58]
  GI50: 22.4 µM
  TGI: 47.3 µM
[59]
  GI50: 16.1 µM
  TGI: 32.1 µM
[60]
  GI50: 3.03 µM
  TGI: 9.89 µM
[43]
  GI50: 18.7 µM
  TGI: 33.2 µM
[44]
  GI50: 18.2 µM
  TGI: 32.3 µM
[45]
  GI50: 34.3 µM
  TGI: > 100 µM
[46]
  GI50: 20.6 µM
  TGI: 37.9 µM
[47]
  GI50: 12.7 µM
  TGI: 27.3 µM
[48]
  GI50: 33.9 µM
  TGI: > 100 µM
